# In ChEMBL document CHEMBL1155421, “Evaluation of a 4-aminopiperidine replacement in several series of CCR5 antagonists” (Bioorg Med Chem Lett, 2010):
# pIC50: −log10 of the molar value.
# System: Human immunodeficiency virus 1
# Test: Antiviral activity against HIV1 NLBal infected JC53BL cells assessed as inhibition of replication by luciferase reporter assay
# Type: functional, organism-based
# Settings: Human immunodeficiency virus 1, NLBal
row,Structure (SMILES),pIC50
1,COC[C@@H](c1ccc(C(F)(F)F)cc1)N1CCN(C2C[C@@H]3CN(C(=O)c4c(C)ncnc4C)C[C@@H]3C2)C[C@@H]1C (some centres undefined),< 6.20
2,COC[C@@H](c1ccc(C(F)(F)F)cc1)N1CCN(C2C[C@@H]3CN(C(=O)c4c(C)ccnc4C)C[C@@H]3C2)C[C@@H]1C (some centres undefined),< 6.20
3,COC[C@@H](c1ccc(C(F)(F)F)cc1)N1CCN(C2C[C@@H]3CN(C(=O)c4c(C)cc(C#N)nc4C)C[C@@H]3C2)C[C@@H]1C (some centres undefined),< 6.20
4,CCCC[C@H]1CN(CC2CCOCC2)C(=O)OC12CCN(C1C[C@@H]3CN(C(=O)c4c(C)ncnc4C)C[C@@H]3C1)CC2 (some centres undefined),6.58
5,CCCC[C@H]1CN(CC2CCOCC2)C(=O)OC12CCN(C1(C)C[C@H]3CN(C(=O)c4c(C)ncnc4C)C[C@H]3C1)CC2 (some centres undefined),≤ 6.20
6,CCCC[C@H]1CN(CC2CCOCC2)C(=O)OC12CCN(C1(C)C[C@H]3CN(C(=O)c4c(C)cc(C#N)nc4C)C[C@H]3C1)CC2 (some centres undefined),7.74
7,CCCC[C@H]1CN(C[C@H]2CC[C@H](OCC)CC2)C(=O)OC12CCN(C1C[C@@H]3CN(C(=O)c4c(C)ccnc4C)C[C@@H]3C1)CC2 (some centres undefined),8.40
8,CCCC[C@H]1CN(C[C@H]2CC[C@H](OC3CC3)CC2)C(=O)OC12CCN(C1C[C@@H]3CN(C(=O)c4c(C)ncnc4C)C[C@@H]3C1)CC2 (some centres undefined),7.92

# Now from value to molecule:
row,pIC50,Structure (SMILES)
1,6.45,CCO[C@H]1Cc2cc(C(F)(F)F)ccc2[C@@H]1N1CCN(C2C[C@@H]3CN(C(=O)c4c(C)ccnc4C)C[C@@H]3C2)C[C@@H]1C (some centres undefined)
2,< 6.20,CCO[C@H]1Cc2cc(C(F)(F)F)ccc2[C@@H]1N1CCN(C2C[C@@H]3CN(C(=O)c4c(C)ncnc4C)C[C@@H]3C2)C[C@@H]1C (some centres undefined)
3,7.23,CCO[C@H]1Cc2cc(C(F)(F)F)ccc2[C@@H]1N1CCN(C2C[C@@H]3CN(C(=O)c4c(C)cc(C#N)nc4C)C[C@@H]3C2)C[C@@H]1C (some centres undefined)
4,7.72,CCCC[C@H]1CN(C[C@H]2CC[C@H](OCC)CC2)C(=O)OC12CCN(C1C[C@@H]3CN(C(=O)c4c(C)ncnc4C)C[C@@H]3C1)CC2 (some centres undefined)
5,7.92,CCCC[C@H]1CN(C[C@H]2CC[C@H](OC(C)C)CC2)C(=O)OC12CCN(C1C[C@@H]3CN(C(=O)c4c(C)ncnc4C)C[C@@H]3C1)CC2 (some centres undefined)
6,8.05,CCCC[C@H]1CN(CC2CCOCC2)C(=O)OC12CCN(C1C[C@@H]3CN(C(=O)c4c(C)cc(C#N)nc4C)C[C@@H]3C1)CC2 (some centres undefined)

# Target: C-C chemokine receptor type 5 (Homo sapiens, UniProt P51681)
# Sequence (P51681 whole entry): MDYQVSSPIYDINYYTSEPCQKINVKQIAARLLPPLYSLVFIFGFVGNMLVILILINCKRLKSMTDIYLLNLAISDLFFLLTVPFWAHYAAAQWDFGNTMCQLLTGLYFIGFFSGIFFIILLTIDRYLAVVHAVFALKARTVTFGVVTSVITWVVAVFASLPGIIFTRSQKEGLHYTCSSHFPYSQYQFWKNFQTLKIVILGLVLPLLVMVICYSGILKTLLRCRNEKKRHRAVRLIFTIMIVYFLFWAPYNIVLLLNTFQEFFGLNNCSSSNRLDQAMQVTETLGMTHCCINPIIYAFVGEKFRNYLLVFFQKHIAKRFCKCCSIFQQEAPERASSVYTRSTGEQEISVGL
# Test: Displacement of […] from CCR5 receptor receptors expressed in CHO cells
# Type: cell-based
# Settings: not given
row,Structure (SMILES),pIC50
1,COC[C@@H](c1ccc(C(F)(F)F)cc1)N1CCN(C2C[C@@H]3CN(C(=O)c4c(C)ncnc4C)C[C@@H]3C2)C[C@@H]1C (some centres undefined),< 6.30
2,COC[C@@H](c1ccc(C(F)(F)F)cc1)N1CCN(C2C[C@@H]3CN(C(=O)c4c(C)ccnc4C)C[C@@H]3C2)C[C@@H]1C (some centres undefined),< 6.30
3,COC[C@@H](c1ccc(C(F)(F)F)cc1)N1CCN(C2C[C@@H]3CN(C(=O)c4c(C)cc(C#N)nc4C)C[C@@H]3C2)C[C@@H]1C (some centres undefined),< 6.30
4,CCCC[C@H]1CN(CC2CCOCC2)C(=O)OC12CCN(C1C[C@@H]3CN(C(=O)c4c(C)ncnc4C)C[C@@H]3C1)CC2 (some centres undefined),7.85
5,CCCC[C@H]1CN(CC2CCOCC2)C(=O)OC12CCN(C1(C)C[C@H]3CN(C(=O)c4c(C)ncnc4C)C[C@H]3C1)CC2 (some centres undefined),7.60
6,CCCC[C@H]1CN(CC2CCOCC2)C(=O)OC12CCN(C1(C)C[C@H]3CN(C(=O)c4c(C)cc(C#N)nc4C)C[C@H]3C1)CC2 (some centres undefined),7.21
7,CCCC[C@H]1CN(C[C@H]2CC[C@H](OCC)CC2)C(=O)OC12CCN(C1C[C@@H]3CN(C(=O)c4c(C)ccnc4C)C[C@@H]3C1)CC2 (some centres undefined),7.47
8,CCCC[C@H]1CN(C[C@H]2CC[C@H](OC3CC3)CC2)C(=O)OC12CCN(C1C[C@@H]3CN(C(=O)c4c(C)ncnc4C)C[C@@H]3C1)CC2 (some centres undefined),7.57
9,CCCC[C@H]1CN(CC2CCOCC2)C(=O)OC12CCN(C1(C)CCN(C(=O)c3c(C)ncnc3C)CC1)CC2,8.40

# More lines, in order of rising pIC50, values ahead:
row,pIC50,Structure (SMILES)
1,7.01,CCO[C@H]1Cc2cc(C(F)(F)F)ccc2[C@@H]1N1CCN(C2C[C@@H]3CN(C(=O)c4c(C)ccnc4C)C[C@@H]3C2)C[C@@H]1C (some centres undefined)
2,7.04,CCO[C@H]1Cc2cc(C(F)(F)F)ccc2[C@@H]1N1CCN(C2C[C@@H]3CN(C(=O)c4c(C)ncnc4C)C[C@@H]3C2)C[C@@H]1C (some centres undefined)
3,7.35,CCO[C@H]1Cc2cc(C(F)(F)F)ccc2[C@@H]1N1CCN(C2C[C@@H]3CN(C(=O)c4c(C)cc(C#N)nc4C)C[C@@H]3C2)C[C@@H]1C (some centres undefined)
4,7.36,CCCC[C@H]1CN(C[C@H]2CC[C@H](OCC)CC2)C(=O)OC12CCN(C1C[C@@H]3CN(C(=O)c4c(C)ncnc4C)C[C@@H]3C1)CC2 (some centres undefined)
5,7.64,CCCC[C@H]1CN(C[C@H]2CC[C@H](OC(C)C)CC2)C(=O)OC12CCN(C1C[C@@H]3CN(C(=O)c4c(C)ncnc4C)C[C@@H]3C1)CC2 (some centres undefined)
6,7.82,CCCC[C@H]1CN(CC2CCOCC2)C(=O)OC12CCN(C1C[C@@H]3CN(C(=O)c4c(C)cc(C#N)nc4C)C[C@@H]3C1)CC2 (some centres undefined)
